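Each compound was tested at five concentrations against cells in 96-well plates for 48 hours. GI50 is the concentration that inhibits growth by half.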 Calls of active or inactive are those of the source. Cut-off read from the data, not from the text of the source: active = GI50 up to about 1.1 µM and inactive = higher.
What was measured:
Assay in all cases: NCI tumour cell line growth inhibition, 48 h
[1] = tested on: OVCAR-4
[2] = tested on: SW-620
[3] = tested on: HT-29
[4] = tested on: SK-MEL-28
[5] = tested on: OVCAR-3
[6] = tested on: OVCAR-8
[7] = tested on: HOP-62
[8] = tested on: NCI-H23
[9] = tested on: LOX IMVI
[10] = tested on: OVCAR-5
[11] = tested on: SF-295
[12] = tested on: M14
[13] = tested on: 786-0
[14] = tested on: A549
[15] = tested on: SK-MEL-2
[16] = tested on: UACC-62
[17] = tested on: MCF7
[18] = tested on: SR

In the case of `CC(=O)[C@@H]1C/C(=C\OCc2ccccc2)O[C@H]1C`, the GI50 [1] is reported as > 100 µM (inactive), the GI50 [2] is reported as > 100 µM (inactive) and the GI50 [3] is reported as > 100 µM (inactive). For the same compound, the GI50 [4] was > 100 µM (inactive), the GI50 [5] was > 100 µM (inactive) and the GI50 [6] was > 100 µM (inactive). The GI50 [7] was > 100 µM (inactive), the GI50 [8] was > 100 µM (inactive) and the GI50 [9] was 61.2 µM (inactive). The GI50 [10] was > 100 µM (inactive), the GI50 [11] was > 100 µM (inactive) and the GI50 [12] was > 100 µM (inactive). The GI50 [13] was > 100 µM (inactive) and the GI50 [14] was > 100 µM (inactive).

`Nc1nc(Cl)c2nnn(CC3CCC(CO)C3)c2n1` (centres undefined) was tested, and the GI50 [1] was > 100 µM (inactive), the GI50 [15] was > 100 µM (inactive) and the GI50 [2] was > 100 µM (inactive). For the same compound, the GI50 [4] was > 100 µM (inactive), the GI50 [5] was > 100 µM (inactive) and the GI50 [7] was > 100 µM (inactive). For the same compound, the GI50 [16] was > 100 µM (inactive), the GI50 [9] was > 100 µM (inactive) and the GI50 [10] was > 100 µM (inactive). For the same compound, the GI50 [11] was > 100 µM (inactive), the GI50 [17] was > 100 µM (inactive) and the GI50 [12] was > 100 µM (inactive). For the same compound, the GI50 [13] was > 100 µM (inactive) and the GI50 [14] was > 100 µM (inactive).

With `N#Cc1c(=O)c2ccccc2n2ccccc12` the GI50 [1] was > 100 µM (inactive), the GI50 [18] was > 100 µM (inactive) and the GI50 [15] was 13.4 µM (inactive). The GI50 [2] was 79.8 µM (inactive), the GI50 [3] was > 100 µM (inactive) and the GI50 [4] was > 100 µM (inactive). The GI50 [6] was > 100 µM (inactive), the GI50 [16] was > 100 µM (inactive) and the GI50 [8] was > 100 µM (inactive). For the same compound, the GI50 [9] was > 100 µM (inactive), the GI50 [13] was > 100 µM (inactive) and the GI50 [14] was 29.8 µM (inactive).

In the case of `CCCCCCCCCCCCCCCCCCNc1ccn(C2OC(COP(=O)(O)OCC3CCC(n4cnc5c(=O)[nH]cnc54)O3)C(O)C2O)c(=O)n1` (centres undefined), the GI50 [1] is reported as > 100 µM (inactive), the GI50 [15] is reported as > 100 µM (inactive) and the GI50 [2] is reported as > 100 µM (inactive). For the same compound, the GI50 [3] was > 100 µM (inactive), the GI50 [4] was > 100 µM (inactive) and the GI50 [5] was > 100 µM (inactive). The GI50 [6] was > 100 µM (inactive), the GI50 [7] was > 100 µM (inactive) and the GI50 [16] was > 100 µM (inactive). The GI50 [8] was > 100 µM (inactive), the GI50 [9] was > 100 µM (inactive) and the GI50 [10] was 35.4 µM (inactive). For the same compound, the GI50 [11] was > 100 µM (inactive), the GI50 [17] was > 100 µM (inactive) and the GI50 [12] was > 100 µM (inactive). For the same compound, the GI50 [13] was 43.5 µM (inactive) and the GI50 [14] was > 100 µM (inactive).

`Cc1ccc(-c2c(C#N)c(-c3ccccc3)n(NS(=O)(=O)c3ccc(C)cc3)c(=O)c2C#N)cc1` was tested, and the GI50 [1] was 43.5 µM (inactive), the GI50 [15] was 35.8 µM (inactive) and the GI50 [2] was 40.6 µM (inactive). The GI50 [3] was 69.2 µM (inactive), the GI50 [4] was 52.1 µM (inactive) and the GI50 [6] was 41.9 µM (inactive). For the same compound, the GI50 [7] was 41.9 µM (inactive), the GI50 [16] was 43.8 µM (inactive) and the GI50 [9] was 26.7 µM (inactive). For the same compound, the GI50 [10] was > 100 µM (inactive), the GI50 [11] was 41.3 µM (inactive) and the GI50 [17] was 37 µM (inactive). The GI50 [12] was 74.1 µM (inactive), the GI50 [13] was 59.4 µM (inactive) and the GI50 [14] was 55.8 µM (inactive).

With `Cc1nn(-c2ccccc2)c2nc3c(c(C)nn3-c3ccccc3)c(-c3ccccc3Br)c12` the GI50 [1] was > 100 µM (inactive), the GI50 [18] was > 100 µM (inactive) and the GI50 [2] was > 100 µM (inactive). The GI50 [3] was > 100 µM (inactive), the GI50 [4] was > 100 µM (inactive) and the GI50 [5] was > 100 µM (inactive). For the same compound, the GI50 [6] was > 100 µM (inactive), the GI50 [7] was > 100 µM (inactive) and the GI50 [16] was > 100 µM (inactive). The GI50 [8] was > 100 µM (inactive), the GI50 [9] was > 100 µM (inactive) and the GI50 [10] was > 100 µM (inactive). The GI50 [11] was 57.3 µM (inactive), the GI50 [17] was > 100 µM (inactive) and the GI50 [12] was > 100 µM (inactive). The GI50 [13] was > 100 µM (inactive) and the GI50 [14] was 8.95 µM (inactive).

With `Cc1ccc(/N=C2/SC(c3ccc(C)cc3)(c3ccc(C)cc3)c3ccccc32)cc1` the GI50 [1] was > 100 µM (inactive), the GI50 [15] was > 100 µM (inactive) and the GI50 [2] was > 100 µM (inactive). The GI50 [3] was > 100 µM (inactive), the GI50 [4] was > 100 µM (inactive) and the GI50 [5] was > 100 µM (inactive). The GI50 [6] was > 100 µM (inactive), the GI50 [7] was > 100 µM (inactive) and the GI50 [16] was > 100 µM (inactive). For the same compound, the GI50 [8] was > 100 µM (inactive), the GI50 [9] was > 100 µM (inactive) and the GI50 [10] was > 100 µM (inactive). For the same compound, the GI50 [11] was > 100 µM (inactive), the GI50 [17] was > 100 µM (inactive) and the GI50 [12] was > 100 µM (inactive). For the same compound, the GI50 [13] was > 100 µM (inactive) and the GI50 [14] was > 100 µM (inactive).

`[N-]=[N+]=NC1CC(n2ccc(N)nc2=O)OC1COP(=O)(O)OP(=O)(O)OP(=O)(O)O` (centres undefined) was tested, and the GI50 [1] was > 100 µM (inactive), the GI50 [18] was > 100 µM (inactive) and the GI50 [2] was > 100 µM (inactive). The GI50 [3] was > 100 µM (inactive), the GI50 [4] was > 100 µM (inactive) and the GI50 [5] was > 100 µM (inactive). The GI50 [6] was > 100 µM (inactive), the GI50 [7] was > 100 µM (inactive) and the GI50 [16] was > 100 µM (inactive). For the same compound, the GI50 [9] was > 100 µM (inactive), the GI50 [10] was > 100 µM (inactive) and the GI50 [11] was > 100 µM (inactive). The GI50 [17] was > 100 µM (inactive), the GI50 [12] was > 100 µM (inactive) and the GI50 [13] was > 100 µM (inactive). The GI50 [14] was > 100 µM (inactive).

`Cc1cccc(-c2cc(O)c3cccnc3n2)c1` was tested, and the GI50 [1] was 24 µM (inactive), the GI50 [18] was 0.0946 µM (active) and the GI50 [2] was 0.431 µM (active). The GI50 [3] was 0.264 µM (active), the GI50 [4] was 0.406 µM (active) and the GI50 [5] was 0.301 µM (active). The GI50 [6] was 1.35 µM (inactive), the GI50 [7] was 17.6 µM (inactive) and the GI50 [16] was 0.292 µM (active). The GI50 [8] was 2.79 µM (inactive), the GI50 [9] was 0.512 µM (active) and the GI50 [10] was 2.96 µM (inactive). For the same compound, the GI50 [11] was 1.36 µM (inactive), the GI50 [17] was 0.378 µM (active) and the GI50 [12] was 0.555 µM (active). The GI50 [13] was 0.569 µM (active) and the GI50 [14] was 1.34 µM (inactive).

Source: ChEMBL document CHEMBL1201862, “PubChem BioAssay data set” (2004)
